Earlier results as cited in patent publication US11926624B2 (INTERNATIONAL PAPER COMPANY, priority 2018, dated 2024).
Read-outs that look alike come from different tables or passages of the source.

Tests used:
[1] = target: T1, Renilla Luciferase (Renilla reniformis, UniProt P27652); details: for Aem / Initial Intensity / Total Light: with Renilla Luciferase; for Initial Intensity: luminescent intensity as % initial intensity; for Total Light: native = 100
T1 sequence (P27652 1-311): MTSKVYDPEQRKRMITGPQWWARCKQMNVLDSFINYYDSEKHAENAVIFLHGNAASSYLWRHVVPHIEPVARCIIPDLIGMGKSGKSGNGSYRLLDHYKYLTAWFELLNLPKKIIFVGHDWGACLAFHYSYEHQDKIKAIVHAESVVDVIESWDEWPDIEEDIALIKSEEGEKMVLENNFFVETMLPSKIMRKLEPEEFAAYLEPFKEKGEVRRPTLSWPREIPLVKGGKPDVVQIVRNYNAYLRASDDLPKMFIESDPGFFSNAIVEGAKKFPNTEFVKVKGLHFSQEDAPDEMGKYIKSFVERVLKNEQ

[2] = target: T2, aequorin (Aequorea victoria, UniProt P07164); details: for luminescence intensity relative to coelenterazine (native form): coelenterazine-aequorin/apoaequorin complex
T2 sequence (P07164 8-196): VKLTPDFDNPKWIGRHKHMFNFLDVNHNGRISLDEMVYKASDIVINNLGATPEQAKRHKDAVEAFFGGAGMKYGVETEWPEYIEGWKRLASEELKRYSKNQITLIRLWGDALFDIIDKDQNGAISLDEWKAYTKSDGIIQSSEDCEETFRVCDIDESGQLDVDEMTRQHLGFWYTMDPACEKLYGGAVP

[3] = test system: Gaussia luciferase (Gluc)

Row | Compound | Aem [1] [nm] | Total Light [1] [%] | luminescence intensity relative to coelenterazine (native form) [2] | substrate quality for Renilla luciferase [1] | other results
1 | O=c1c(Cc2ccc(F)cc2)nc2c(Cc3ccccc3)[nH]c(-c3ccc(O)cc3)cn1-2 [coelenterazine f] | 473 | 28 | about 20 times | – | Initial Intensity [1]: 45%; emission maximum longer than that of the native form ([2]; coelenterazine-apoaequorin complex): about 8 nm
2 | O=c1c(Cc2ccc(O)cc2)nc2c(CC3CCCC3)[nH]c(-c3ccc(O)cc3)cn1-2 [coelenterazine cp] | 470 | 23 | – | – | –
3 | O=c1c(Cc2ccccc2)nc2c(Cc3ccccc3)[nH]c(-c3ccccc3)cn1-2 [coelenterazine 400a, (2-2′(4-dehydroxy)) coelenterazine] | – | – | – | good substrate | oxidation with Gaussia luciferase [3]: does not oxidize well; emission maximum [1]: about 400 nm
4 | 8-benzyl-2-(4-hydroxybenzyl)-6-(4-hydroxyphenyl)imidazo[1,2-α]pyrazin-3(7H)-one [coelenterazine] | – | 100 | – | – | Initial Intensity ([1]; listed as native): 45%; Initial Intensity ([1]; listed as native coelenterazine): about 45%
5 | O=c1c(Cc2ccc(F)cc2)nc2c(CC3CCCC3)[nH]c(-c3ccc(O)cc3)cn1-2 [coelenterazine fcp] | – | – | about 135 times | poor substrate | –
